# PMC3493622 (Organic & biomolecular chemistry, 2012)
# Read-outs that look alike come from different tables or passages of the source.
# Legend:
# [1] = SRB cytotoxicity / cell survival under nitrite assay conditions; format: cell-based, murine; details: mouse, RAW 264.7 cells
# RAW 264.7 cells = test: as above; format: cell-based, murine; details: for Nitrite assay % survival: 50 μM, cell survival in comparison with vehicle-treated controls, SRB
# HEK293 = test: Cell survival in the NFκB assay; format: cell-based, Human; details: for NFκB assay % survival: 50 μM, cell survival in comparison with vehicle-treated controls
# [2] = system: NFκB (luciferase reporter in human embryonic kidney cells 293); test: NFκB luciferase assay; format: cell-based; details: for NFκB assay % inhibition: screening concentration 50 μM, TNFα; for NFκB inhibitory activity (in words): at 50 μM
# [3] = system: NO production (iNOS) in LPS-stimulated RAW 264.7 cells; format: cell-based, murine; details: for Nitrite assay % inhibition: screening concentration 50 μM, LPS 1 μg/mL, 20 h; for nitrite inhibitory activity (in words): tested up to 50 μM
structure (smiles),measurement,setting,value
"Nc1ccccc1C#Cc1cc(F)cc(F)c1 [10ae′, 2-((3,5-Difluorophenyl)ethynyl)aniline]",IC50 at 20 h,[1],42.9 ± 5.1 µM
"c1ccc(-c2cc3ccccc3[nH]2)cc1 [Compound 1, 2-phenylindole]",Nitrite assay % survival,RAW 264.7 cells,87.3±3.9%
same,NFκB assay % survival,HEK293,113.1±2.8%
same,NFκB assay % inhibition,"[2]; 6 h, 50 µM",72.3±5%
same,Nitrite assay % inhibition,[3]; 50 µM,60.4±2.2%
"C#CCn1c(-c2ccccc2)cc2ccccc21 [Compound 2d, 2-Phenyl-N-propargylindole]",IC50 at 20 h,[1],46.8 ± 1.9 µM
"CC(C)(C)OC(=O)n1c(-c2ccccc2)cc2ccccc21 [Compound 2f, N-Boc-2-phenylindole]",IC50 at 20 h,[1],38.2 ± 5 µM
"c1ccc(C2Cc3ccccc3N2)cc1 (stereo not drawn) [Compound 3, 2-phenylindoline]",nitrite inhibitory activity (in words),[3],essentially inactive
"CON=Cc1c(-c2ccccc2)[nH]c2ccccc12 [Compound 6a, 2-Phenyl-1H-indole-3-carboxaldehyde O-methyl oxime]",IC50 at 20 h,[1],48 ± 5.1 µM
"c1ccc(-c2cc3ccccc3[nH]2)cc1 [Compound 10aa, 2-phenyl-1H-indole]",Nitrite assay % survival,RAW 264.7 cells,66.7±4.0%
same,NFκB assay % survival,HEK293,79.8±5.9%
"Cc1ccccc1-c1cc2ccccc2[nH]1 [Compound 10ab, 2-o-Tolyl-1H-indole]",cell survival at the IC80 concentration,RAW 264.7 cells; at 9.3 μM (IC80 of nitrite inhibition),94.5%
same,IC50 at 20 h,[1],32.9 ± 2.5 µM
same,NFκB inhibitory activity (in words),[2],inactive
same,IC80,"[3]; Mus musculus, RAW264.7, read-out: IC80 concentration (nitrite inhibition)",9.3 µM
"Cc1ccc(-c2cc3ccccc3[nH]2)cc1 [Compound 10ac, 2-p-Tolyl-1H-indole]",nitrite inhibitory activity (in words),[3],essentially inactive
"COc1cc(OC)cc(-c2cc3ccccc3[nH]2)c1 [Compound 10ag, 2-(3,5-Dimethoxyphenyl)-1H-indole]",NFκB inhibitory activity (in words),[2],inactive
"Cc1ccccc1-c1cc2cc([N+](=O)[O-])ccc2[nH]1 [Compound 10bb, 5-Nitro-2-o-toyl-1H-indole]",Nitrite assay % survival,RAW 264.7 cells,89.2±9.5%
same,NFκB assay % survival,HEK293,119.2±8.6%
same,NFκB assay % inhibition,[2]; 6 h,60.6±3.2%
same,Nitrite assay % inhibition,[3],45.9±3.0%
"N#Cc1ccc2cc(-c3ccccc3)[nH]c2c1 [Compound 10ea, 6-Carbonitrile-2-phenyl-1H-indole]",Nitrite assay % survival,RAW 264.7 cells,78.1±3.8%
same,NFκB assay % survival,HEK293,72.4±6.2%
same,NFκB assay % inhibition,[2]; 6 h,50.6±3.8%
same,Nitrite assay % inhibition,[3],45.6±2.5%
"c1ccc(-c2nc3ccccc3[nH]2)cc1 [Compound 11, 2-phenylbenzimidazole, reference compound]",viability at 50 µM,"RAW 264.7 cells; Mus musculus, RAW264.7, 20 h, read-out: Nitrite assay % survival",97.7 ± 5.6%
same,viability at 50 µM,"HEK293; Homo sapiens, HEK293, read-out: NFκB assay % survival",86.2 ± 18%
same,inhibition at 50 µM,"[2]; Homo sapiens, 6 h, read-out: NFκB assay % inhibition",73.6 ± 3.1%
same,IC50,"[2]; Homo sapiens, 6 h, read-out: NFκB assay IC50",11.2 ± 0.3 µM
same,inhibition at 50 µM,"[3]; Mus musculus, RAW264.7, 20 h, read-out: Nitrite assay % inhibition",13.8 ± 6.4%
